Consider two molecules from ChEMBL document CHEMBL3886748, “Indazole derivatives useful as ERK inhibitors” (2016).

The test addresses Mitogen-activated protein kinase 1 (Mus musculus, UniProt P63085). The test is described as follows: Active ERK2 (aERK) Assay: Activated ERK2 activity was also determined in the IMAP assay format using the procedure outlined above. 1 μl of 25× compound was added to 14 μl of kinase buffer containing 0.25 ng fully phosphorylated, active Mouse ERK2 protein. Following a 30 minute incubation, the reactions were initiated by addition of 10 μl of kinase buffer containing 1 μM ERK2 IMAP substrate peptide (0.9 μM unlabeled IPTTPITTTYFFFK-CONH2 and 100 nM IPTTPITTTYFFFK(5-carboxyfluorescein)-CONH2) and 30 μM ATP. Reactions proceeded for 30 minutes before termination by addition of 60 μl IMAP detection beads in binding buffer. Plates were read as above after 30 minute binding equilibration. Active compounds were reconfirmed in an independent assay.

Mitogen-activated protein kinase 1, sequence (P63085 whole entry): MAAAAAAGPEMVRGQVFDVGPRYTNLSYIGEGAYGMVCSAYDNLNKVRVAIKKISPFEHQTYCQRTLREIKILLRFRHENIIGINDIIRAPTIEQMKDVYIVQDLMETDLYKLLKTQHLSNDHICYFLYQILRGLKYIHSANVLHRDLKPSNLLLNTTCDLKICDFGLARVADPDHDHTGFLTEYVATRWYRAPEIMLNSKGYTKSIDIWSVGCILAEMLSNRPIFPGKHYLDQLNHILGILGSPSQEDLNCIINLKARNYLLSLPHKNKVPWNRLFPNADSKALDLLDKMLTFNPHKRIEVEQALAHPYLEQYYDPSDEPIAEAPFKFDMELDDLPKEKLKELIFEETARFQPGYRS

Turning to `Cc1cc(-c2n[nH]c3ccc(C(=O)N[C@@H]4CCC[C@](O)(Cn5cc6cccnc6n5)C4)cc23)ccn1` (relative stereo), the IC50 (in general, the concentration that gives 50% inhibition) stood at 404 nM.

As for `Cc1cc(-c2n[nH]c3ccc(C(=O)N[C@H]4CCC[C@@](O)(Cn5cc6cc(F)ccc6n5)C4)cc23)ccn1` (relative stereo), the IC50 was found to be 772 nM.
